Experiment: Presence of 3-methyl indole in stored monatin samples (GC, mass spectrometry, olfactometry)
Format: physicochemical
Conditions: not detected in the initial samples (Day 0) nor in samples stored in the dark
Description: A compound described as having a musty flavor and odor during some of the organoleptic evaluations is described herein. […] The compound (3-methylindole; 3-MI; skatole) was identified using gas chromatography (GC), mass spectrometry, and olfactometry based on its retention time, mass spectra, and odor profile using the following method.
The volatile components from a sample were purged onto an absorbent and then thermally desorb them into the cold GC inlet for subsequent separation and identification by mass spectrometry. Simultaneously, the GC column effluent was split between the mass spec and olfactory port to determine the specific odor characteristics for compounds that contribute to the overall odor of the sample.
Each sample was extracted and analyzed in duplicate. […]
Each reconstructed total ion current chromatogram (RTICC) was manually reprocessed to 1) identify the compounds by using olfactory and mass spectral library matching. Compounds that were not detected by olfactory but which gave significant response were also identified, and 2) integrate the peaks to obtain areas for relative comparison to the other samples analyzed. […] Corrected areas for each compound were then converted to graphical form to more easily compare samples analyzed during the test.

- detection of 3-methylindole in stored monatin samples: only found in samples exposed to light
Compound: Cc1c[nH]c2ccccc12 [3-methylindole]

— patent US20120076899A1, “SHELF STABLE MONATIN SWEETENED BEVERAGE” (Cargill, Incorporated, priority 2009, published 2012)
